Assay results taken from patent publication US8466155B2, “Pyrimidines” (Boehringer Ingelheim International GmbH, priority 2009, dated 2013).
pIC50: −log10 of the molar value.

Molecular target: T1, PTK2 (Homo sapiens, UniProt Q05397)
T1 construct: purchased Invitrogen PV3832
Assay: PTK2 enzyme test, Assay 1 (DELFIA, PT60 antibody)
Type: biochemical
Settings: 1 h pre-incubation, 1 h kinase reaction, values without *
Experimental: This test uses active PTK2 enzyme (Invitrogen Code PV3832) and poly-Glu-Tyr (4:1, Sigma P-0275) as the kinase substrate. The kinase activity is detected through the phosphorylation of the substrate in a DELFIA™ assay. The phosphorylated substrate is detected with the europium-labelled phosphotyrosine antibody PT60 (Perkin Elmer, No.: AD00400).
In order to determine concentration-activity curves with PTK2-inhibitors the compounds are serially diluted in 10% DMSO/H20 and 10 μL of each dilution are placed in each well of a 96-well microtitre plate (clear plate with a U-shaped base, Greiner No. 650101) (the inhibitors are tested in duplicates) and mixed with 10 μL/well of PTK2 kinase (0.01 μg/well). PTK2 kinase has been correspondingly diluted beforehand with kinase dilution buffer (20 mM TRIS/HCl pH 7.5, 0.1 mM EDTA, 0.1 mM EGTA, 0.286 mM sodium orthovanadate, 10% glycerol with the addition of freshly prepared BSA (fraction V, 1 mg/mL) and DTT (1 mM)). The test compound and the PTK2 kinase are pre-incubated for 1 h at RT and shaken at 500 revolutions per min. The reaction is started by the addition of 10 μL/well poly (Glu,Tyr) substrate (25 μg/well poly (Glu, Tyr), 0.05 μg/well biotinylated poly (Glu,Tyr) dissolved in 250 mM TRIS/HCl pH 7.5, 9 mM DTT)—the final concentration of DMSO is 2%. Then 20 μL of ATP Mix (30 mM TRIS/HCl pH 7.5, 0.02% Brij, 0.2 mM sodium orthovanadate, 10 mM magnesium acetate, 0.1 mM EGTA, 1× phosphatase inhibitor cocktail 1 (Sigma, No.: P2850), 50 μM ATP (Sigma, No.: A3377; 15 mM stock solution)) are added. After 1 h of kinase reaction (the plates are shaken at 500 rpm), the reaction is stopped by the addition of 12 μL/well 100 mM EDTA, pH 8.0 and shaken for a further 5 min at RT (500 rpm). 55 μL of the reaction mixture are transferred into a streptavidin plate (Strepta Well High Bind (transparent, 96-well) made by Roche, No.: 11989685001) and incubated for 1 h at RT (shaking at 500 rpm). Then the microtitre plate is washed three times with 200 μL/well D-PBS (Invitrogen, No. 14190). 100 μL of a solution containing DELFIA Eu-N1 Anti-Phosphotyrosine PT60 antibody (Perkin Elmer, No.: AD0040, diluted 1:2000 in DELFIA test buffer (Perkin Elmer, No.: 1244-111)) is then added and the mixture is incubated for 1 h at RT (shaking at 500 rpm). Then the plate is washed three times with 200 μL/well DELFIA washing buffer (Perkin Elmer, No.: 1244-114), 200 μL/well strengthening solution (Perkin Elmer, No.: 1244-105) are added and the mixture is incubated for 10 min at RT (shaking at 300 rpm).
The time-delayed europium fluorescence is then measured in a microtitre plate reader (VICTOR^3, Perkin Elmer). […] Wells that contain test buffer instead of enzyme are used as a control of the background kinase activity.
The IC50 values are determined from analyses of the concentration activity by iterative calculation with the aid of a sigmoid curve analysis algorithm (FIFTY, based on GraphPAD Prism Version 3.03) with a variable Hill coefficient.

T1 sequence (Q05397 whole entry): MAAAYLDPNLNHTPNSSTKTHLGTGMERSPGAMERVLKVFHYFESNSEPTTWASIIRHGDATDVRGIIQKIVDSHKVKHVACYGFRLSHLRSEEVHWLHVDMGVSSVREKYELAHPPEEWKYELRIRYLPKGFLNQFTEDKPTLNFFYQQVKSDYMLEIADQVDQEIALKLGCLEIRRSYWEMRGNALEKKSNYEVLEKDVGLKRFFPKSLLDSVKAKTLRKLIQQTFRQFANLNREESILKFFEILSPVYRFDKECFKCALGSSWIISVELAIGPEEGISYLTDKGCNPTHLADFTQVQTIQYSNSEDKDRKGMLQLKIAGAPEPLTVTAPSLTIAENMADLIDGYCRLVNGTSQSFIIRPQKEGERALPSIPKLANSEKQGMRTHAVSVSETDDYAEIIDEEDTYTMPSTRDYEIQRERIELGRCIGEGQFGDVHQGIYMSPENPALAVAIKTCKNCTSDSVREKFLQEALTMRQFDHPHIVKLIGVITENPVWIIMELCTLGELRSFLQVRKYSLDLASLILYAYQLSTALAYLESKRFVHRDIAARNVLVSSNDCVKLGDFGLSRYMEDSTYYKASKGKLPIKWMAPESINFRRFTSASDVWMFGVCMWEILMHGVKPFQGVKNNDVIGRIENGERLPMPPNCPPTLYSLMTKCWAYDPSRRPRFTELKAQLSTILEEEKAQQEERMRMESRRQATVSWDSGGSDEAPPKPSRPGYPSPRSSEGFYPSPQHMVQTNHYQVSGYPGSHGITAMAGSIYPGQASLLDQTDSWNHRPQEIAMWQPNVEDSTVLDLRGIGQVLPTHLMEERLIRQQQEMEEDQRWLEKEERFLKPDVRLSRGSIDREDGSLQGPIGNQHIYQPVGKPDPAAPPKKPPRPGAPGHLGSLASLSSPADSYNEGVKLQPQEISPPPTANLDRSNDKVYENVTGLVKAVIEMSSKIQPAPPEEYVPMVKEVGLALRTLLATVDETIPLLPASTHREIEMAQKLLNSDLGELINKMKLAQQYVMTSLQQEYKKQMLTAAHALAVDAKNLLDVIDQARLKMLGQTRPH

| Structure (SMILES) | pIC50 |
| --- | --- |
| COc1cc(C(=O)NC[C@@H](O)CO)c(F)cc1Nc1ncc(Cl)c(O[C@@H]2Cc3ccccc3[C@H]2N(C)S(C)(=O)=O)n1 [Example 51] | 7.89 |
| COc1cc(C(=O)N[C@H]2CC[C@H](N3CCN(CC4CC4)CC3)CC2)c(F)cc1Nc1ncc(Cl)c(O[C@@H]2Cc3ccccc3[C@H]2N(C)S(C)(=O)=O)n1 [Example 58] | 8.22 |
| CONC(=O)c1cc(OC)c(Nc2ncc(Cl)c(O[C@@H]3Cc4ccccc4[C@H]3N(C)S(C)(=O)=O)n2)cc1F [Example 43] | 7.66 |
| CONC(=O)c1cc(OC)c(Nc2ncc(C(F)(F)F)c(O[C@@H]3Cc4ccccc4[C@H]3N(C)S(C)(=O)=O)n2)cc1F [Example 1] | 8.22 |
| CNC(=O)c1cc(OC)c(Nc2ncc(Cl)c(O[C@@H]3Cc4ccccc4[C@H]3N(C)S(C)(=O)=O)n2)cc1F [Example 67] | 7.80 |
| COc1cc(C(=O)NCC2CC2)c(F)cc1Nc1ncc(Cl)c(O[C@@H]2Cc3ccccc3[C@H]2N(C)S(C)(=O)=O)n1 [Example 66] | 7.80 |
| COc1cc(C(=O)NCCN(C)C)c(F)cc1Nc1ncc(C(F)(F)F)c(O[C@@H]2Cc3ccccc3[C@H]2N(C)S(C)(=O)=O)n1 [Example 2] | 8.30 |
| COc1cc(C(=O)NC[C@H](O)CO)c(F)cc1Nc1ncc(Cl)c(O[C@@H]2Cc3ccccc3[C@H]2N(C)S(C)(=O)=O)n1 [Example 56] | 8.05 |
| COc1cc(C(=O)NN2CCN(C)CC2)c(F)cc1Nc1ncc(Cl)c(O[C@@H]2Cc3ccccc3[C@H]2N(C)S(C)(=O)=O)n1 [Example 59] | 8.22 |
| COc1cc(C(=O)NC2CCN(C)CC2)c(F)cc1Nc1ncc(C(F)(F)F)c(O[C@@H]2CCC[C@H]2NS(=O)(=O)CCl)n1 [Example 45] | 8.30 |
| COc1cc(C(=O)N[C@H]2CC[C@H](O)CC2)ccc1Nc1ncc(C(F)(F)F)c(O[C@@H]2Cc3ccccc3[C@H]2N(C)S(C)(=O)=O)n1 [Example 22] | 8.10 |
| COc1cc(C(=O)NCC(C)(C)C)c(Cl)cc1Nc1ncc(Cl)c(O[C@@H]2Cc3ccccc3[C@H]2N(C)S(C)(=O)=O)n1 [Example 39] | 8.22 |
| COc1cc(C(=O)N[C@H]2CC[C@H](O)CC2)c(F)cc1Nc1ncc(C(F)(F)F)c(O[C@@H]2Cc3ccccc3[C@H]2N(C)S(C)(=O)=O)n1 [Example 10] | 8.15 |
| COc1cc(C(=O)NCCn2ccnc2C)c(F)cc1Nc1ncc(Cl)c(O[C@@H]2Cc3ccccc3[C@H]2N(C)S(C)(=O)=O)n1 [Example 52] | 8.22 |
| COc1cc(C(=O)N[C@H]2CC[C@H](O)CC2)c(F)cc1Nc1ncc(Cl)c(O[C@@H]2Cc3ccccc3[C@H]2N(C)S(C)(=O)=O)n1 [Example 55] | 8.22 |

Now from value to compound:

| pIC50 | Structure (SMILES) |
| --- | --- |
| 8.52 | COc1cc(C(=O)N[C@H]2CCN(C)C[C@@H]2OC)ccc1Nc1ncc(C(F)(F)F)c(O[C@@H]2Cc3ccccc3[C@H]2N(C)S(C)(=O)=O)n1 [Example 29, 4-{4-[(1R,2R)-1-(methanesulphonyl-methyl-amino)-indan-2-yloxy]-5-trifluoromethyl-pyrimidin-2-ylamino}-3-methoxy-N-((3S,4S)-3-methoxy-1-methyl-piperidin-4-yl)-benzamide] |
| 8.40 | COc1cc(C(=O)NC[C@@H](O)CO)c(Cl)cc1Nc1ncc(Cl)c(O[C@@H]2Cc3ccccc3[C@H]2N(C)S(C)(=O)=O)n1 [Example 42] |
| 9.00 | Cc1nc2ccc(Nc3ncc(C(F)(F)F)c(O[C@@H]4CCC[C@H]4NS(C)(=O)=O)n3)cc2o1 [Example 83] |
| 9.43 | COc1cc(C(=O)NCCN(C)C)c(F)cc1Nc1ncc(C(F)(F)F)c(O[C@@H]2CCC[C@H]2NS(C)(=O)=O)n1 [Example 99] |
| 8.52 | COc1cc(C(=O)NCCCN(C)C)c(F)cc1Nc1ncc(Cl)c(O[C@@H]2Cc3ccccc3[C@H]2N(C)S(C)(=O)=O)n1 [Example 60] |
| 8.30 | COc1cc(NC(C)=O)ccc1Nc1ncc(C(F)(F)F)c(O[C@@H]2Cc3ccccc3[C@H]2N(C)S(C)(=O)=O)n1 [Example 94] |
| 8.52 | COc1cc(C(=O)NCCN(C)C)c(Cl)cc1Nc1ncc(Cl)c(O[C@@H]2Cc3ccccc3[C@H]2N(C)S(C)(=O)=O)n1 [Example 40] |
| 8.52 | COc1cc(C(=O)NN2CCN(C)CC2)c(Cl)cc1Nc1ncc(Cl)c(O[C@@H]2Cc3ccccc3[C@H]2N(C)S(C)(=O)=O)n1 [Example 63] |
| 8.70 | CS(=O)(=O)N[C@@H]1CCC[C@H]1Oc1nc(Nc2ccc3ncsc3c2)ncc1C(F)(F)F [Example 97] |
| 8.40 | COc1cc(C(=O)NCCCN(C)C)c(F)cc1Nc1ncc(C(F)(F)F)c(O[C@@H]2Cc3ccccc3[C@H]2N(C)S(C)(=O)=O)n1 [Example 8] |
| 9.38 | COc1cc(C(=O)NC2CCN(C)CC2)c(Cl)cc1Nc1ncc(C(F)(F)F)c(O[C@@H]2CCCC[C@H]2N(C)S(C)(=O)=O)n1 [Example 74, 2-chloro-4-{4-[(1R,2R)-2-(methanesulphonyl-methyl-amino)-cyclohexyloxy]-5-trifluoromethyl-pyrimidin-2-ylamino}-5-methoxy-N-(1-methyl-piperidin-4-yl)-benzamide] |
| 8.70 | COc1cc(C(=O)NN2CCN(C)CC2)ccc1Nc1ncc(C(F)(F)F)c(O[C@@H]2CCC[C@H]2NS(C)(=O)=O)n1 [Example 73] |
| 8.40 | COc1cc(C(=O)NN2CCN(C)CC2)ccc1Nc1ncc(C(F)(F)F)c(O[C@@H]2Cc3ccccc3[C@H]2N(C)S(C)(=O)=O)n1 [Example 19] |
| 9.46 | COc1cc(C(=O)NCCN(C)C)c(F)cc1Nc1ncc(C(F)(F)F)c(O[C@@H]2CCCC[C@H]2N(C)S(C)(=O)=O)n1 [Example 110] |
